Reference: patent publication US20060025474A1, “Bisphenyl compounds useful as vitamin D3 receptor agonists” (priority 2004, published 2006)
One block for each molecule: values may come before it.

Tests used:
[1] = system: ovariectomized (OVX) rats; experiment: Bone mineral density in the ovariectomized (OVX) rats (2); format: in vivo, Sprague-Dawley rats; conditions: orally seven times a week for 4 weeks; for Spinal BMD: L2-L5
Experimental: Bone Mineral Density in the Ovariectomized (OVX) Rats (2)
Alfacalcidol was synthesized in Chugai Pharmaceutical Co., Ltd., Japan, dissolved in a vehicle (medium chain triglyceride, MCT) and diluted to a given concentration. The stock solutions were protected from light and stored at 4° C.
(§1) Eight-month-old female Sprague-Dawley (Crl:CD(SD)) rats were purchased from Charles River Japan Inc. (Kanagawa, Japan) and acclimated under standard laboratory conditions at 23±2° C. and 40-70% humidity. The rats were allowed free access to tap water and commercial standard rodent chow CRF-1 (Oriental Yeast Co. Ltd., Japan).
(§2) Sham-operated (n=8) and the ovariectomized (OVX) rats were used. The OVX rats were divided into each group (n=8) one day after the surgery. In the sham and OVX control groups, rats received the vehicle (MCT) p.o. at a dose of 1 ml/kg body weight (BW) every day. Each compound was given orally seven times a week for 4 weeks.
(§3) During the 24 hours from the last administration, urine was collected with metabolic cage, and blood was drawn from the jugular vein under ether anesthesia. Blood and urine samples were centrifuged to obtain the supernatant, which were stored at −20° C. until assay. The lumbar vertebrae and femora were removed. The lumbar vertebra and the right femur were stored i 70% ethanol at 4° C. for the measurement of bone mineral density (BMD).
(§4) Serum and Urine Biochemistry
(§5) Serum calcium (Ca) and inorganic phosphorus (Pi) concentrations were measured with an autoanalyzer (Hitachi 7170, Tokyo, Japan). The serum osteocalcin concentration was measured with Osteocalcin rat ELISA system (Smersham Pharmacia Biotech, Tokyo, Japan). Urinary Ca, Pi, and creatinine (Cre) were measured with an autoanalyzer. Urinary deoxypyridinoline (D-Pyr) was measured using a Metra DPD EIA kit (Quidel Co., USA), and the data were corrected for urinary Cre concentrations.
(§6) Measurement of Bone Mineral Density
The second through fifth lumbar vertebaral (L2-L5) BMD (mg/cm^2) and femoral BMD were measured by dual-energy X-ray absorptiometry (DCS-600-EX, Aloka, Japan).

[2] = system: ovariectomized (OVX) rats; experiment: Bone mineral density in the ovariectomized (OVX) rats (1); format: in vivo, Sprague-Dawley rats; conditions: orally five times a week for 4 weeks; for Spinal BMD: L2-L4
Experimental: Bone Mineral Density in the Ovariectomized (OVX) Rats (1)
The compounds of the present invention were prepared as exemplified above, dissolved in a vehicle (medium chain triglyceride, MCT) and diluted to a given concentration. The stock solutions were protected from light and stored at 4° C.
as §1, with “24±2°” for “23±2°”, “50-60%” for “40-70%”, “CE-2 (Clea Japan Inc.,” for “CRF-1 (Oriental Yeast Co. Ltd.,”
as §2, with “five times a week.” for “every day.”, “five” for “seven”, “weeks. These animal studies were carried out in accordance with Chugai Pharmaceutical's ethical guidelines for animal care, and the experimental protocols were approved by the animal care committee of the institution.” for “weeks.”
as §3, with “the abdominal aorta” for “the jugular vein”, “and femur” for “and femora”, “stored in” for “stored i”
as §4
as §5, with “(Amersham” for “(Smersham”
as §6
The second through fourth lumbar vertebaral (L2-L4) BMD (mg/cm^2) and femoral BMD were measured by dual-energy X-ray absorptiometry (DCS-600-EX, Aloka, Japan).

[3] = system: ECAC2 mRNA in Caco-2 cells; format: cell-based
In short: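 Caco-2 cells grown 4 days, then exposed 1 day at 37° C to compounds in medium with 10% FBS, refreshed twice daily. ECAC2 mRNA by one-step TaqMan RT-PCR, normalized to GAPDH. EC50 from Emax model, expressed as ratio to LG190178 EC50.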

SMILES: C=C1/C(=C\C=C2/CCC[C@]3(C)[C@@H]([C@H](C)CCCC(C)C)CC[C@@H]23)C[C@@H](O)C[C@@H]1O [Alfacalcidol]
serum Ca ([1]; 0.125 microgram/kg/week): 10.2 mg/dL
Spinal BMD ([1]; 0.125 microgram/kg/week): 182.1 mg/cm2
serum Ca ([1]; 0.25 microgram/kg/week): 10.6 mg/dL
Spinal BMD ([1]; 0.25 microgram/kg/week): 180.9 mg/cm2
serum Ca ([1]; 0.5 microgram/kg/week): 10.7 mg/dL
Spinal BMD ([1]; 0.5 microgram/kg/week): 185.1 mg/cm2

SMILES: CCC(CC)(c1ccc(CCC(O)C(C)(C)C)c(C)c1)c1ccc(OC[C@H](O)CCC(=O)[O-])c(C)c1.[Na+] (stereo partly drawn) [Example 140, 5-(4-{1-Ethyl-1-[4-(3-hydroxy-4,4-dimethyl-pentyl)-3-methyl-phenyl]-propyl}-2-methyl-phenoxy)-4(R)-hydroxy-pentanoic acid sodium salt]
serum Ca ([2]; 0.75 microgram/kg/week): 10.0 mg/dL
Spinal BMD ([2]; 0.75 microgram/kg/week): 186.6 mg/cm2
ECaC-2 mRNA induction activity in Caco-2 cells [3]: 53%

SMILES: CCC(CC)(c1ccc(CCC(O)C(C)(C)C)c(C)c1)c1ccc(OC[C@H](O)CCC(=O)[O-])c(C)c1.[Na+] (stereo partly drawn) [Example 141, 5-(4-{1-Ethyl-1-[4-(3-hydroxy4,4-dimethyl-pentyl)-3-methyl-phenyl]-propyl}-2-methyl-phenoxy)4(R)-hydroxy-pentanoic acid sodium salt]
serum Ca ([2]; 7.5 microgram/kg/week): 10.1 mg/dL
Spinal BMD ([2]; 7.5 microgram/kg/week): 184.4 mg/cm2
ECaC-2 mRNA induction activity in Caco-2 cells [3]: 31%

SMILES: CCC(CC)(c1ccc(C#CC(O)(C(F)(F)F)C(F)(F)F)c(C)c1)c1ccc(OC[C@H]2CCCC(=O)O2)c(C)c1 [Example 59, (R)-6-(4-{1-Ethyl-1-[3-methyl4-(4,4,4-trifluoro-3-hydroxy-3-trifluoromethyl-but-1-ynyl)-phenyl]-propyl}-2-methyl-phenoxymethyl)-tetrahydro-pyran-2-one]
ECaC-2 mRNA induction activity in Caco-2 cells [3]: 117%

SMILES: CCC(CC)(c1ccc(C#CC(O)C(C)(C)C)c(C)c1)c1ccc(OC[C@@H](O)CO)c(C)c1 (stereo partly drawn) [Example 66, 3-(4-{1-ethyl-1-[4-(3-hydroxy-4,4-dimethyl-pent-1-ynyl)-3-methyl-phenyl]-propyl}-2-methyl-phenoxy)-propane-1,2(S)-diol]
ECaC-2 mRNA induction activity in Caco-2 cells [3]: 126%

The remaining lines, values ahead:

ECaC-2 mRNA induction activity in Caco-2 cells [3]: 410%
SMILES: CCC(CC)(c1ccc(/C=C/C(O)(C(F)(F)F)C(F)(F)F)c(C)c1)c1ccc(OC[C@H](O)CCCC(=O)O)c(C)c1 [Example 62, (R)-6-(4-{1-Ethyl-1-[3-methyl-4-((E)-4,4,4-trifluoro-3-hydroxy-3-trifluoromethyl-but-1-enyl)-phenyl]-propyl}-2-methyl-phenoxy)-5-hydroxy-hexanoic acid]

ECaC-2 mRNA induction activity in Caco-2 cells [3]: 90%
SMILES: CCC(O)(/C=C/c1ccc(C(CC)(CC)c2ccc(OC[C@@H](O)CO)c(C)c2)cc1C)CC [Example 64, (S)-3-(4-{1-ethyl-1-[4-((E)-3-ethyl-3-hydroxy-pent-1-enyl)-3-methyl-phenyl]-propyl}-2-methyl-phenoxy)-propane-1,2-diol]

ECaC-2 mRNA induction activity in Caco-2 cells [3]: 1662%
SMILES: CCC(CC)(c1ccc(C#CC(O)(C(F)(F)F)C(F)(F)F)c(C)c1)c1ccc(OC[C@@H](O)CCCO)c(C)c1 [Example 153, (S)-5-(4-{1-Ethyl-1-[3-methyl-4-(4,4,4-trifluoro-3-hydroxy-3-trifluoromethyl-but-1-ynyl)-phenyl]-propyl}-2-methyl-phenoxy)-pentane-1,4-diol]

ECaC-2 mRNA induction activity in Caco-2 cells [3]: 276%
SMILES: CCC(CC)(c1ccc(/C=C/C(O)(C(F)(F)F)C(F)(F)F)c(C)c1)c1ccc(OC[C@@H](O)CCCC(=O)O)c(C)c1 [Example 56, (S)-6-(4-{1-Ethyl-1-[3-methyl-4-((E)4,4,4-trifluoro-3-hydroxy-3-trifluoromethyl-but-1-enyl)-phenyl]-propyl}-2-methyl-phenoxy)-5-hydroxy-hexanoic acid]
